Laboratory results reported in ChEMBL document CHEMBL3792365, “Dioxol and dihydrodioxin analogs of 2- and 3-phenylacetonitriles as potent anti-cancer agents with nanomolar activity against a variety of human cancer cells” (2016).

What was measured:
Format in all cases: functional
SR = assay: Growth inhibition of human SR cells at 10 uM after 48 hrs by sulforhodamine B assay; conditions: values are per cent of control
SK-MEL-28 = assay: Growth inhibition of human SK-MEL-28 cells at 10 uM after 48 hrs by sulforhodamine B assay; conditions: SK-MEL-28, 48 h, values are per cent of control
NCI-H226 = assay: Growth inhibition of human NCI-H226 cells at 10 uM after 48 hrs by sulforhodamine B assay; conditions: NCI-H226, 48 h, values are per cent of control
[1] = Growth inhibition of human IGROV1 cells at 10 uM after 48 hrs by sulforhodamine B assay; conditions: IGROV-1, 48 h, values are per cent of control
T47D = assay: Growth inhibition of human T47D cells at 10 uM after 48 hrs by sulforhodamine B assay; conditions: values are per cent of control
U-251 = assay: Growth inhibition of human U251 cells at 10 uM after 48 hrs by sulforhodamine B assay; conditions: U-251, 48 h, values are per cent of control
[2] = Growth inhibition of human SKOV3 cells at 10 uM after 48 hrs by sulforhodamine B assay; conditions: SK-OV-3, 48 h, values are per cent of control
[3] = Growth inhibition of human SW620 cells at 10 uM after 48 hrs by sulforhodamine B assay; conditions: SW-620, 48 h, values are per cent of control
MDA-MB-468 = assay: Growth inhibition of human MDA-MB-468 cells at 10 uM after 48 hrs by sulforhodamine B assay; conditions: MDA-MB-468, 48 h, values are per cent of control
NCI-H460 = assay: Growth inhibition of human NCI-H460 cells at 10 uM after 48 hrs by sulforhodamine B assay; conditions: NCI-H460, 48 h, values are per cent of control
[4] = Growth inhibition of human COLO205 cells at 10 uM after 48 hrs by sulforhodamine B assay; conditions: COLO 205, 48 h, values are per cent of control
NCI-H522 = assay: Growth inhibition of human NCI-H522 cells at 10 uM after 48 hrs by sulforhodamine B assay; conditions: NCI-H522, 48 h, values are per cent of control
[5] = Growth inhibition of human HOP62 cells at 10 uM after 48 hrs by sulforhodamine B assay; conditions: HOP-62, 48 h, values are per cent of control
[6] = Growth inhibition of human SF268 cells at 10 uM after 48 hrs by sulforhodamine B assay; conditions: SF-268, 48 h, values are per cent of control
ACHN = assay: Growth inhibition of human ACHN cells at 10 uM after 48 hrs by sulforhodamine B assay; conditions: values are per cent of control
[7] = Growth inhibition of human SNB19 cells at 10 uM after 48 hrs by sulforhodamine B assay; conditions: SNB-19, 48 h, values are per cent of control
[8] = Growth inhibition of human HCC2998 cells at 10 uM after 48 hrs by sulforhodamine B assay; conditions: HCC 2998, 48 h, values are per cent of control
786-0 = assay: Growth inhibition of human 786-0 cells at 10 uM after 48 hrs by sulforhodamine B assay; conditions: 786-0, 48 h, values are per cent of control
[9] = Growth inhibition of human NCI-ADR-RES cells at 10 uM after 48 hrs by sulforhodamine B assay; conditions: values are per cent of control
[10] = Growth inhibition of human TK10 cells at 10 uM after 48 hrs by sulforhodamine B assay; conditions: TK-10, 48 h, values are per cent of control
[11] = Growth inhibition of human DU145 cells at 10 uM after 48 hrs by sulforhodamine B assay; conditions: DU-145, 48 h, values are per cent of control
[12] = Growth inhibition of human UACC62 cells at 10 uM after 48 hrs by sulforhodamine B assay; conditions: UACC-62, 48 h, values are per cent of control
[13] = Growth inhibition of human SF295 cells at 10 uM after 48 hrs by sulforhodamine B assay; conditions: SF-295, 48 h, values are per cent of control
[14] = Growth inhibition of human HCT15 cells at 10 uM after 48 hrs by sulforhodamine B assay; conditions: HCT-15, 48 h, values are per cent of control
[15] = Growth inhibition of human SF539 cells at 10 uM after 48 hrs by sulforhodamine B assay; conditions: SF-539, 48 h, values are per cent of control
[16] = Growth inhibition of human Caki1 cells at 10 uM after 48 hrs by sulforhodamine B assay; conditions: CAKI-1, 48 h, values are per cent of control
NCI-H23 = assay: Growth inhibition of human NCI-H23 cells at 10 uM after 48 hrs by sulforhodamine B assay; conditions: NCI-H23, 48 h, values are per cent of control
[17] = Growth inhibition of human Hs 578T cells at 10 uM after 48 hrs by sulforhodamine B assay; conditions: values are per cent of control
A498 = assay: Growth inhibition of human A498 cells at 10 uM after 48 hrs by sulforhodamine B assay; conditions: A498, 48 h, values are per cent of control
[18] = Growth inhibition of human OVCAR5 cells at 10 uM after 48 hrs by sulforhodamine B assay; conditions: OVCAR-5, 48 h, values are per cent of control
SK-MEL-2 = assay: Growth inhibition of human SK-MEL-2 cells at 10 uM after 48 hrs by sulforhodamine B assay; conditions: SK-MEL-2, 48 h, values are per cent of control
MDA-MB-435 = assay: Growth inhibition of human MDA-MB-435 cells at 10 uM after 48 hrs by sulforhodamine B assay; conditions: MDA-MB-435, 48 h, values are per cent of control
SN12C = assay: Growth inhibition of human SN12C cells at 10 uM after 48 hrs by sulforhodamine B assay; conditions: values are per cent of control
[19] = Growth inhibition of human SNB75 cells at 10 uM after 48 hrs by sulforhodamine B assay; conditions: SNB-75, 48 h, values are per cent of control
[20] = Growth inhibition of human RXF393 cells at 10 uM after 48 hrs by sulforhodamine B assay; conditions: RXF 393, 48 h, values are per cent of control
K562 = assay: Growth inhibition of human K562 cells at 10 uM after 48 hrs by sulforhodamine B assay; conditions: K562, 48 h, values are per cent of control
[21] = Growth inhibition of human OVCAR4 cells at 10 uM after 48 hrs by sulforhodamine B assay; conditions: OVCAR-4, 48 h, values are per cent of control
M14 = assay: Growth inhibition of human M14 cells at 10 uM after 48 hrs by sulforhodamine B assay; conditions: M14, 48 h, values are per cent of control
[22] = Growth inhibition of human HCT116 cells at 10 uM after 48 hrs by sulforhodamine B assay; conditions: HCT-116, 48 h, values are per cent of control
NCI-H322M = assay: Growth inhibition of human NCI-H322M cells at 10 uM after 48 hrs by sulforhodamine B assay; conditions: values are per cent of control

| SMILES | growth, % of control at 10 µM (SR) | growth, % of control at 10 µM (SK-MEL-28) | growth, % of control at 10 µM (NCI-H226) | growth, % of control at 10 µM [1] | growth, % of control at 10 µM (T47D) | growth, % of control at 10 µM (U-251) | growth, % of control at 10 µM [2] | growth, % of control at 10 µM [3] | growth, % of control at 10 µM (MDA-MB-468) | growth, % of control at 10 µM (NCI-H460) | growth, % of control at 10 µM [4] | growth, % of control at 10 µM (NCI-H522) | growth, % of control at 10 µM [5] | growth, % of control at 10 µM [6] | growth, % of control at 10 µM (ACHN) | growth, % of control at 10 µM [7] | growth, % of control at 10 µM [8] | growth, % of control at 10 µM (786-0) | growth, % of control at 10 µM [9] | growth, % of control at 10 µM [10] | also measured |
| --- | --- | --- | --- | --- | --- | --- | --- | --- | --- | --- | --- | --- | --- | --- | --- | --- | --- | --- | --- | --- | --- |
| N#C/C(=C\c1ccc2ccccc2n1)c1ccc2c(c1)OCO2 | 60.5% | 88.6% | 70.8% | 55.1% | 69.4% | 26.7% | 25.8% | 89.9% | 77.8% | 24.7% | 104% | 58.8% | 69.7% | 62.5% | 41.4% | 34.7% | 95.1% | 51.9% | 64.3% | 45% | growth, % of control at 10 µM [11]: 81.3%; growth, % of control at 10 µM [12]: 86.8%; growth, % of control at 10 µM [13]: 64%; growth, % of control at 10 µM [14]: 79.7%; growth, % of control at 10 µM [15]: 69.6%; growth, % of control at 10 µM [16]: 76%; growth, % of control at 10 µM (NCI-H23): 58.8%; growth, % of control at 10 µM [17]: 34.8%; growth, % of control at 10 µM (A498): 54.1%; growth, % of control at 10 µM [18]: 81.1%; growth, % of control at 10 µM (SK-MEL-2): 87.1%; growth, % of control at 10 µM (MDA-MB-435): 48.3%; growth, % of control at 10 µM (SN12C): 73%; growth, % of control at 10 µM [19]: 5.4%; growth, % of control at 10 µM [20]: 80%; growth, % of control at 10 µM (K562): 70.3%; growth, % of control at 10 µM [21]: 45%; growth, % of control at 10 µM (M14): 90.3%; growth, % of control at 10 µM [22]: 20.5%; growth, % of control at 10 µM (NCI-H322M): 66.6% |
| N#C/C(=C\c1cccc2ccccc12)c1ccc2c(c1)OCO2 | 23.8% | 64.6% | 83% | 68.8% | 67.9% | 47.3% | 61.9% | 35.2% | 25.9% | 77.8% | 56% | 47.6% | 75.9% | 71% | 79.3% | 82.1% | 68.8% | 77.1% | 36.5% | 78.2% | growth, % of control at 10 µM [11]: 77.7%; growth, % of control at 10 µM [12]: 44.7%; growth, % of control at 10 µM [13]: 68.2%; growth, % of control at 10 µM [14]: 40.6%; growth, % of control at 10 µM [15]: 67.9%; growth, % of control at 10 µM [16]: 61.2%; growth, % of control at 10 µM (NCI-H23): 77.7%; growth, % of control at 10 µM [17]: 65.5%; growth, % of control at 10 µM (A498): 35.7%; growth, % of control at 10 µM [18]: 98.2%; growth, % of control at 10 µM (SK-MEL-2): 59.8%; growth, % of control at 10 µM (MDA-MB-435): -28.5%; growth, % of control at 10 µM (SN12C): 75.9%; growth, % of control at 10 µM [19]: 61.6%; growth, % of control at 10 µM [20]: 64.3%; growth, % of control at 10 µM (K562): 21.7%; growth, % of control at 10 µM [21]: 68.9%; growth, % of control at 10 µM (M14): 37.9%; growth, % of control at 10 µM [22]: 32.7%; growth, % of control at 10 µM (NCI-H322M): 90.5% |
